# Source: US10208066B2, “Imidazopyridazine compounds and their use” (HUTCHISON MEDIPHARMA LIMITED, priority 2014, dated 2019)
# Experiments:
# SU-DHL-6 cells = assay: In vitro cell proliferation assay in SU-DHL-6 cell line (CCK-8); type: cell-based; details: Homo sapiens, SU-DHL-6, 72 h
# Protocol: Growth inhibition assays were carried out using 10% FBS supplemented media. Cells were seeded at a concentration of 15000 cells/well in a 96 well plate. Test compound dilution at different concentrations (final concentrations of the test compound: 1 uM, 0.3 uM, 0.1 uM, 0.037 uM, 0.012 uM, 0.0041 uM, 0.0014 uM and 0.0005 uM) were added after 24 hours. Growth was assessed using Cell Counting Kit-8 (CCK-8) (Dojindo, Cat#CK04) after the test compound were incubated for 72 h. Absorbance was read at the wave length 450 nm on Multiskan MK3 machine (Thermo).
# (§2) Data was analyzed and IC50 values were generated using the add-in software for Microsoft Excel, Xlfit™ (version 5.3).
# PI3K-γ (p110γ) = PI3K-γ (p110γ) (Homo sapiens (Human), UniProt P48736); assay: Transcreener KINASE Assay, fluorescent determination of PI3K enzyme activity; type: biochemical; details: for inhibition at 1 µM: read-out: PI3K-γ IH % (inhibition rate);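 as to all read-outs here: ADP produced by p110γ kinase reaction, 80 min at room temperature, detected by far-red fluorescence polarization immunoassay, inhibition relative to 2% DMSO control wells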
# Sequence of PI3K-γ (p110γ) (P48736 whole entry, species assumed): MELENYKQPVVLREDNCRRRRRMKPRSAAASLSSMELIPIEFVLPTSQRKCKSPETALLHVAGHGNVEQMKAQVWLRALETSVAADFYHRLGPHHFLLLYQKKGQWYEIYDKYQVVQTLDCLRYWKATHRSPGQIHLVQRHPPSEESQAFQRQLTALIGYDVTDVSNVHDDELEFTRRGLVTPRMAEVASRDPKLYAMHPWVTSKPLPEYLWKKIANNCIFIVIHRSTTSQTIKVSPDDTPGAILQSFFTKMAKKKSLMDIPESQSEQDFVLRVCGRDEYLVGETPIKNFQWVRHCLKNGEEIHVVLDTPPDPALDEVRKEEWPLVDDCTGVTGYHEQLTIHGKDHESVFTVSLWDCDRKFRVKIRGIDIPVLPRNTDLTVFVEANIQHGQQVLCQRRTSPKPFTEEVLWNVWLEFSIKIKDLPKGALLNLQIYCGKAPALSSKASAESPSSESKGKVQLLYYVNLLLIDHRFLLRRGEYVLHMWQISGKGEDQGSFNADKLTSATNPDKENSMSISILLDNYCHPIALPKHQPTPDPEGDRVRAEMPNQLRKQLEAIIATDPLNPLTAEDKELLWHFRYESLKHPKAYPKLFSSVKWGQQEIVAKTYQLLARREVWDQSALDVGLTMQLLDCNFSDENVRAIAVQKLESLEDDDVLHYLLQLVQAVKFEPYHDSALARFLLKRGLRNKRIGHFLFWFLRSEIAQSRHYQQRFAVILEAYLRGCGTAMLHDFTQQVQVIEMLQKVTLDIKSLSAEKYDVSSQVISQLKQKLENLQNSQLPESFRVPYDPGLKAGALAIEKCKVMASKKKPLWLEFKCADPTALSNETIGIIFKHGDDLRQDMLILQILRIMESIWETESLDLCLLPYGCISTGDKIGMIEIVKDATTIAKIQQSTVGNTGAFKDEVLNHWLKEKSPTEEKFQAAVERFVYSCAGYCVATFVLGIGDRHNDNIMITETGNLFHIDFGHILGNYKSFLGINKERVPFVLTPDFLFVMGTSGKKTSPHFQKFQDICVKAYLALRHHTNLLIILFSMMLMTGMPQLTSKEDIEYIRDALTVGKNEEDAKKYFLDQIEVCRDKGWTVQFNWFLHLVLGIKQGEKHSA
# PI3K-α (p110α/p85α) = PI3K-α (p110α/p85α) (Homo sapiens (Human), UniProt P42336); assay: as above; type: biochemical; details: for inhibition at 1 µM: read-out: PI3K-α IH % (inhibition rate)
# Sequence of PI3K-α (p110α/p85α) (P42336 whole entry, species assumed): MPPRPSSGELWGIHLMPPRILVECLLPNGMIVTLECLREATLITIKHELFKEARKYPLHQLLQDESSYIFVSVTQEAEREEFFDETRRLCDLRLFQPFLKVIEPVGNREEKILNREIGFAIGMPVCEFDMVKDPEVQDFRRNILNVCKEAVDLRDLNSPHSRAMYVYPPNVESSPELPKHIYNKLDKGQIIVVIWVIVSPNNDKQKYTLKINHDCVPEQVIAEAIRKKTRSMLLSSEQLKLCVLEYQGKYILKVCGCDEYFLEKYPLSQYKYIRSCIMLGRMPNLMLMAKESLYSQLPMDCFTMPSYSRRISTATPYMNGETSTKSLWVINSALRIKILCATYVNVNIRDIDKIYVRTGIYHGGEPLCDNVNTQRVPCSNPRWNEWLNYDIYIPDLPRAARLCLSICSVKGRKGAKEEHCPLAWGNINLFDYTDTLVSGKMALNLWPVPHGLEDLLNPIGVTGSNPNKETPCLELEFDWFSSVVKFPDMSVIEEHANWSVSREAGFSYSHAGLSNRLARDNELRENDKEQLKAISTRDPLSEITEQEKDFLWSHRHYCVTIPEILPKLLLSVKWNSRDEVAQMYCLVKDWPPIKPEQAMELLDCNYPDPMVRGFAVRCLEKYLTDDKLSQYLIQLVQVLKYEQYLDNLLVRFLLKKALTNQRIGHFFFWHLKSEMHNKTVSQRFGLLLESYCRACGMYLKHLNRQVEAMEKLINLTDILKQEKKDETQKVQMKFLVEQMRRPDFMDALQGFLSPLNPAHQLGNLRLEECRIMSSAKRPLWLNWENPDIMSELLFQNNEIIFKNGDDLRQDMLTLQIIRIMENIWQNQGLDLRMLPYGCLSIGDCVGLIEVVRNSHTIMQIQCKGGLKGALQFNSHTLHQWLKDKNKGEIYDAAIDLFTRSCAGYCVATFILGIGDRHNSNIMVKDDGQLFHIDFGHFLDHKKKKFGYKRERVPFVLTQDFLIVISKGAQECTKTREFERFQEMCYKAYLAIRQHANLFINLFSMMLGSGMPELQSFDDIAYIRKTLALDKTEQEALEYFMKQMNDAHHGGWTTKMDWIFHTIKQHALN
# Sequence of PI3K-α (p110α/p85α) (P27986 whole entry partner, species assumed): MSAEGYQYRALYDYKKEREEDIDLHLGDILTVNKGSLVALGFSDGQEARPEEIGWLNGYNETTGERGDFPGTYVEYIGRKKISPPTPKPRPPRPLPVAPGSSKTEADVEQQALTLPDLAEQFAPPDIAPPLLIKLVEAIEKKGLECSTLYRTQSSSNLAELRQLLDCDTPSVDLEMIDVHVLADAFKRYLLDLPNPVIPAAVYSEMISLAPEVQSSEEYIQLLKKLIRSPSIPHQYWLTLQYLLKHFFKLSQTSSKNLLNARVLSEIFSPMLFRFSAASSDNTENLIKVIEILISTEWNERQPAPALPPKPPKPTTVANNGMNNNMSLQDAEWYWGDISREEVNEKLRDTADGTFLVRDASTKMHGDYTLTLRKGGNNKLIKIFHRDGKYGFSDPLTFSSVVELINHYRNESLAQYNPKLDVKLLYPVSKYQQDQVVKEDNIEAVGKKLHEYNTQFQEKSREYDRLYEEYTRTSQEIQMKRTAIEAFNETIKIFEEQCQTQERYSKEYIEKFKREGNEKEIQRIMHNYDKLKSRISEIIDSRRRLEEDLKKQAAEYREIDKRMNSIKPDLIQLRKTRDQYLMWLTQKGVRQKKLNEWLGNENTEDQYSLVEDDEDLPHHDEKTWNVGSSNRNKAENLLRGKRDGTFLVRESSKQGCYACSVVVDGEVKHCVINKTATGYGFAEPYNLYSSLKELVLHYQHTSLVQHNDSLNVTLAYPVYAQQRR
# Protocol: Inhibition rates were calculated as follow: IH %=(ADP amount under 2% DMSO well−ADP amount under test compound well)/ADP amount under 2% DMSO well×100%.
# PI3K-β = PI3K-β (Homo sapiens, UniProt P42338); assay: as above; type: biochemical; details: for inhibition at 1 µM: read-out: PI3K-β IH % (inhibition rate); for inhibition at 1 µM / PI3K-β IH % (inhibition rate): at 1 μM;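 as to all read-outs here: recombinant PI3K enzyme reaction, 80 min at room temperature, ADP formed detected by far-red competitive fluorescence polarization immunoassay, inhibition relative to ADP in 2% DMSO control wells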
# Sequence of PI3K-β (P42338 whole entry, looked up): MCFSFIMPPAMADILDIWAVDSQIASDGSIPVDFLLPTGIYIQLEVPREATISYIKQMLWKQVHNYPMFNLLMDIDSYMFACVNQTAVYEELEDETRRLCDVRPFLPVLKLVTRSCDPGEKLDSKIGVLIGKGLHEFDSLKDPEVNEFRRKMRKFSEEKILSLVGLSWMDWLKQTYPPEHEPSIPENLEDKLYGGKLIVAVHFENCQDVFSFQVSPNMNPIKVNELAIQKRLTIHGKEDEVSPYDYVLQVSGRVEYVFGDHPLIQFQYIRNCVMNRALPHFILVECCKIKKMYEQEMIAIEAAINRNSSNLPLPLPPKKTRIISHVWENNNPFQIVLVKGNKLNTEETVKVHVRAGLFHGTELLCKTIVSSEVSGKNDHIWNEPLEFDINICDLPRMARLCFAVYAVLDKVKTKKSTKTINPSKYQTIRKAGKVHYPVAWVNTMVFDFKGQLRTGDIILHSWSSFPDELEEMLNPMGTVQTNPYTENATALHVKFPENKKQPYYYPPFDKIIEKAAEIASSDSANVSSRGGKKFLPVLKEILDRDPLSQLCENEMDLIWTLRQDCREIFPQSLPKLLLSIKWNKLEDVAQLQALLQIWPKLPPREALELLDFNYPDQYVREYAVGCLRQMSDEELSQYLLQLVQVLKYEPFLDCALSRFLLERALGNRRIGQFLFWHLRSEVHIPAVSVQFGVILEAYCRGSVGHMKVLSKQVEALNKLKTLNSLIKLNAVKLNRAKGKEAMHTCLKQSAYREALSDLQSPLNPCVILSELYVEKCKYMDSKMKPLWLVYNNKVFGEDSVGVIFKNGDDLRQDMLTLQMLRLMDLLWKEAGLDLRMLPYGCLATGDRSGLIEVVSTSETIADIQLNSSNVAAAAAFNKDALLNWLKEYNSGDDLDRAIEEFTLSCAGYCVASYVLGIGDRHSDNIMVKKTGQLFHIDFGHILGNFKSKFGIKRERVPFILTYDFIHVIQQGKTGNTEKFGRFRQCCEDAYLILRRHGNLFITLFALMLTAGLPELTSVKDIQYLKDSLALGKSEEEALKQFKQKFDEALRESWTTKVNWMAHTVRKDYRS
# Protocol: (§3) It is a universal, homogenous, high throughput screening (HTS) technology using a far-red, competitive fluorescence polarization immunoassay based on the detection of ADP to monitor the activity of enzymes that catalyze group transfer reactions. […] The reaction mixture was added into desired wells of a 96-well plate. The plate was sealed and incubated for 80 min at room temperature. • 2) Next, 25 uL ADP detection mix was added into each well. The plate was sealed again and incubated for 60 min at room temperature. Then fluorescence polarization was measured by Tecan Infinite F500 Reader.
# as §2
# [1] = test system: PI3Kδ signaling in basophils; assay: Inhibition of PI3Kδ signaling in basophils from human whole blood; type: cell-based; details: human whole blood, anti-human IgE stimulation, CD63; read-out: IC50, inhibition of PI3Kδ signaling in basophils
# Protocol: Methods • 1) Heparinized human whole blood was mixed and pipetted into the 96 well v-bottom plate, 100 μL per well. • 2) 10 μL of stimulation buffer (1 mg/mL stock, final concentration of Recombinant human IL-3: 20 ng/mL) was added to the whole blood samples of each well and vortex gently. […] Vortex all the wells once more and incubate for 20 min at 37° C. • 5) Labeling with staining antibody: Degranulation was stopped by incubating the samples on ice for 5 min. 6 μL of staining antibody mixture (anti-CD63-FITC and anti-IgE-PE) was added into each well. Vortex and incubate the wells for 20 min in an ice bath, covered to prevent exposure to light. • 6) The whole blood samples were lysed with 300 uL RBC lysis (pre-warmed to room temperature, 20 to 25° C.). Vortex and incubate the samples for 15 min at room temperature. Spin down cells (5 min, 250×g, 4° C.). The supernatant was aspirated leaving approximately 100 μL in each well. • 7) The blood samples were lysed once more as step 6). • 8) Washing: The samples are washed once with 0.5 mL of washing solution. The plate was centrifuged (5 min, 250×g, 4° C.). The supernatant was aspirated leaving approximately 100 μL in each well. The sample in each well was washed and centrifuged once more as above. • 9) 200 μL of fixing solution (1% papraledehyde in 1% BSA/PBS) was added into each well.
# as §2
# PI3K-δ (p110δ/p85α) = PI3K-δ (p110δ/p85α) (Homo sapiens (Human), UniProt O00329); assay: Transcreener KINASE Assay, fluorescent determination of PI3K enzyme activity; type: biochemical;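 also: ADP formed by the kinase detected via far-red competitive fluorescence polarization immunoassay after 80 min room-temperature reaction, inhibition relative to 2% DMSO wells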
# Sequence of PI3K-δ (p110δ/p85α) (O00329 whole entry, species assumed): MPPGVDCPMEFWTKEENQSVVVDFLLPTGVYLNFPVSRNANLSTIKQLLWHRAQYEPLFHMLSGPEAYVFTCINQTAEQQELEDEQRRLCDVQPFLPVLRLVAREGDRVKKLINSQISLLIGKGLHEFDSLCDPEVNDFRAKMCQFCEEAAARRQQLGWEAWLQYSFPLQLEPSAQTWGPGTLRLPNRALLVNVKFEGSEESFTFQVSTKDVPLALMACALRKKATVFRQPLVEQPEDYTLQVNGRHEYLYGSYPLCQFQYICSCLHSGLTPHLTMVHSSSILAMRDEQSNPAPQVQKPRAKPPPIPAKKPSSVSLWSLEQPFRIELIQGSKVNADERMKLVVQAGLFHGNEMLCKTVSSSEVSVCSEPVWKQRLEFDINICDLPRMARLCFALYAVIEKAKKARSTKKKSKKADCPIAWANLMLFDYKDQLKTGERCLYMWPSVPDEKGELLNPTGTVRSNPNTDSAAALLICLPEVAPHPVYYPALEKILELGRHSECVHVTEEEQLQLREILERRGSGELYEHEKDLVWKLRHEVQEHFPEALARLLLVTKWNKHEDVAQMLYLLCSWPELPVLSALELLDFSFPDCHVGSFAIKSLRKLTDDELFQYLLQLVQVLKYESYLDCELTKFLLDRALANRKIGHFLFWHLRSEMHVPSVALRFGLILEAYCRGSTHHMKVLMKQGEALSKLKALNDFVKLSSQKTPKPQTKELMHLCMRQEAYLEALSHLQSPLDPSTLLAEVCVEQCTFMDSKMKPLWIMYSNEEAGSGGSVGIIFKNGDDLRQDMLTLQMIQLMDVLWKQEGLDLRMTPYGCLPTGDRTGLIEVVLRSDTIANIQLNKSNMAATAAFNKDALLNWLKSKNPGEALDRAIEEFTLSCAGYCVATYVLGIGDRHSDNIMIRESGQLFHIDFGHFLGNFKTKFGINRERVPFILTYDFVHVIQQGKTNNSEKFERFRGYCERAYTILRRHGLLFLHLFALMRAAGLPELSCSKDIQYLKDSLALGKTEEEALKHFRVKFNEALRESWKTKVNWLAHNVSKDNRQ
# Sequence of PI3K-δ (p110δ/p85α) (P27986 whole entry partner, species assumed): as the sequence (P27986 whole entry partner, species assumed) above
# Protocol: as §3, §2
# [2] = test system: AKT phosphorylation (p-AKT Ser473) in Ramos cells; assay: Inhibition of AKT phosphorylation in Ramos cell line (anti-IgM stimulated); type: cell-based; details: Homo sapiens; Ramos cells, anti-IgM stimulation; read-out: IC50, inhibition of AKT phosphorylation
# Protocol: 6×10^4/mL Ramos cells (ATCC, CRL-1596; cells were cultured in RPMI1640 media with 10% FBS) were seeded into a 96-well plate (Beckman Dickinson, No. 356692) at 80 uL/well, 4,800 cells/well. After incubation for 3 hr at 37° C. under 5% CO2, Ramos cells were treated with 10 uL/well various concentrations of test compound (final concentrations of the test compound: 1 uM, 0.3 uM, 0.1 uM, 0.037 uM, 0.012 uM, 0.0041 uM, 0.0014 uM and 0.0005 uM) or 0.3% DMSO for 30 min, and then were stimulated with 10 uL/well 1 ug/ml Anti-IgM (Jackson Immunoresearch, 709-006-073) for 15-20 min. • 1) Cells were fixed with 100 μL of 4% pre-warmed Paraformaldehyde (2% final concentration), and incubated for 45 min at room temperature. • 2) The paraformaldehyde solution was removed. 100 μL of ice-cold methanol was added into each well and the plate was left at 4° C. for 30 min. • 3) The cells were washed for three times with 160 μL PBS. • 4) 40 μL 1:350 dilution of Rabbit anti-p-AKT(Ser^473) antibody (Cell Signaling Technology, 4060L) in antibody dilution buffer (1% BSA, in PBS) were added into each well. The plate was inculpated overnight at 4° C. • 5) The cells were washed for 3 times with 160 uL PBS. • 6) 45 μL of Goat anti-rabbit IgG Alexa488 antibody (Invitrogen, A11034) at a 1:1,000 dilution in antibody dilution buffer (1% BSA, in PBS) were added into each well. The plate was covered with foil to keep out of light and was incubated for 90 min at room temperature. • 7) The cells were washed for 3 times with 160 uL PBS. • 8) 50 μL of 1.5 μM Propidium Iodide (Sigma: P4170) solution was added into each well to determine cell number (1.5 mM Propidium iodide stock was diluted with 1:1,000 in PBS, and the final concentration was 1.5 μM). • 9) The plate was incubated at room temperature for 30 min and then was sealed with a cover-seal. • 10) The plate was loaded into the Acumen Explorer and scan with the appropriate instrument settings.
# as §2
# [3] = test system: collagen-induced arthritis, paw volume; assay: Rat collagen II induced arthritis (CIA) model; type: in vivo, Wistar rats
# Protocol: Rat collagen induced arthritis is an experimental model of polyarthritis that has been widely used for nonclinical testing of numerous anti-arthritic agents that are either under nonclinical or clinical investigation or are currently used as therapeutics in this disease. […] Wistar rats were immunized intradermally with 200 μg bovine collagen H emulsified in Freund's incomplete adjuvant (IFA, Sigma. US) on day 0 and day 7. The hind paw volumes were measured before and after the immunization. […] The naive group was not administered. YiSaiPu (10 mg/kg), a human tumor necrosis factor receptor p75 Fc fusion protein, was administered with intraperitoneal injection on days 10, 12 and 14 as a positive control. The study was terminated on day 18.
# [4] = Plasma levels of compound 4 after oral administration; type: in vivo, Wistar rats; details: dose range 0.01 mg/kg to 3 mg/kg
# Protocol: (§1) Wistar rats (female, 6-8 weeks old) were used in the experiments. The dose dependency, time course study and PKPD relationship of compound 4 were conducted in normal Wistar rats. […] The control group (6 rats) was treated with the vehicle alone. At designated time points (1 hour, 8 hours, 16 hours and 24 hours after administration), blood samples were collected from rats via retro-orbital bleeding under isofluorane anesthesia into heparinized tubes. The heparin anti-coagulated blood was mixed with anti-rat-IgD, then was incubated at 37° C. under 5% CO2 overnight. Fluorescence signal for CD86 on B220 (B cells) positive cells was detected using a flow cytometer (BD FACSCalibur, BD Biosciences) and data were analyzed by CellQuest software. Plasma was collected to measure compound 4 levels.
# [5] = test system: B cells (B220+) activation (CD86); assay: Anti-IgD antibody induced B cells activation in rat whole blood, ex vivo after oral administration; parameters: species or system Wistar rats
# Protocol: Activation of B cells (B220+) in rat whole, blood with anti-IgD antibody leading to activation via Ig receptors is known to involve PI3K pathways and sensitive to modulation by PI3Kδ inhibitors, A pharmacodynamics assay was developed to assess activity of PI3Kδ inhibitors ex vivo following oral administration of inhibitors to rats.
# as §1
inhibition at 1 µM (PI3K-γ (p110γ); at 1 μM) [%],SMILES,IC50 (SU-DHL-6 cells) [nM],IC50 (PI3K-α (p110α/p85α)) [nM],inhibition at 1 µM (PI3K-β) [%],IC50 [1] [nM],IC50 (PI3K-δ (p110δ/p85α)) [nM],IC50 [2] [nM],IC50 (PI3K-γ (p110γ)) [nM],further results
61.2,C[C@H](Nc1ncnc2[nH]ccc12)c1cc2ncc(Cl)n2nc1-c1ccccc1 [Compound 17],172,> 1000,15.8,618,26,,,
,"CCC(Nc1ncnc2[nH]cnc12)c1cc2ncc(Cl)n2nc1-c1ccccc1F (single isomer, unassigned) [Compound 25]",32,,,37,,5,,PI3K-β IH % (inhibition rate) (PI3K-β): 22.8%
,"C[C@H](Nc1ncnc(N)c1C#N)c1cc2ncc(Cl)n2nc1-c1ccccc1 [Compound 4, (S)-4-amino-6-((1-(3-chloro-6-phenylimidazo[1,2-b]pyridazin-7-yl)ethyl)amino)pyrimidine-5-carbonitrile]",,> 1000,,,,2,,"mean paw volume at end of treatment vs vehicle-treated diseased animals ([3]; PO QD 7 days, p<0.01 except at lowest dose 0.03 mg/kg): significantly decreased; effects on parameters associated with established type II collagen-induced arthritis ([3]; daily oral treatment): dose-dependent beneficial effects; Plasma levels [4]: dose-proportional; ED50 ([5]; Rattus norvegicus, B-cell, at 2 hr post-dose, oral): < 0.01 mg/kg; inhibition at 0.1 mg/kg ([5]; Rattus norvegicus, B-cell, single oral 0.1 mg/kg dose, up to 24 hr): > 90%; anti-IgD induced B cell activation in rat whole blood, ex vivo ([5]; oral, dose range 0.01 to 3 mg/kg, p<0.01): inhibited anti-IgD induced B cell activation"
,Cc1cnc2cc([C@H](C)Nc3ncnc4[nH]cnc34)c(-c3ccccc3)nn12 [Compound 23],78,,28.7,6,6,12,343,inhibition at 1 µM (PI3K-α (p110α/p85α)): 3.2%
,CCC(Nc1ncnc2[nH]cnc12)c1cc2ncc(Cl)n2nc1-c1ccccc1 (stereo not drawn) [Compound 18],26,> 1000,,88,4,,617,PI3K-β IH % (inhibition rate) (PI3K-β): 42%
61.1,"CC[C@H](Nc1ncnc(N)c1C#N)c1cc2ncc(Cl)n2nc1-c1ccccc1 [Compound 6, (S)-4-amino-6-((1-(3-chloro-6-phenylimidazo[1,2-b]pyridazin-7-yl)propyl)amino)pyrimidine-5-carbonitrile]",3,> 1000,,6,1,0.3,,IC50 (PI3K-β): 303 nM
,C[C@H](Nc1ncnc(N)c1C#N)c1cc2ncc(Cl)n2nc1-c1cccc(F)c1 [Compound 15],2,> 1000,59,2,1,0.5,393,
,CCC(Nc1ncnc(N)c1C#N)c1cc2ncc(Cl)n2nc1-c1ccccn1 (stereo not drawn) [Compound 29],11,,,,3,,,PI3K-γ IH % (inhibition rate) (PI3K-γ (p110γ); at 1 μM): 35%; IC50 (PI3K-β): 174 nM
43.1,"C[C@@H](c1cc2ncc(Cl)n2nc1-c1ccccc1)n1cnc2c(N)ncnc21 [Compound 20, (S)-9-(1-(3-chloro-6-phenylimidazo[1,2-b]pyridazin-7-yl)ethyl)-9H-purin-6-amine]",262,> 1000,17.4,397,73,,,
,CCC(Nc1ncnc(N)c1C#N)c1cc2ncc(Cl)n2nc1-c1ccccc1F (stereo not drawn) [Compound 19],23,> 1000,,16,2,,1960,IC50 (PI3K-β): 1070 nM
,C[C@H](Nc1ncnc2[nH]cnc12)c1cc2ncc(Cl)n2nc1-c1ccccc1F [Compound 13],11,> 1000,,10,3,4,484,IC50 (PI3K-β): 1920 nM
-1.4,"C[C@H](Nc1ncnc(N)c1C#N)c1cc2ncc(Cl)n2nc1-c1ccccn1 [Compound 8, (S)-4-amino-6-((1-(3-chloro-6-(pyridin-2-yl)imidazo[1,2-b]pyridazin-7-yl)ethyl)amino)pyrimidine-5-carbonitrile]",31,> 1000,37.7,9,10,,,
,Cc1cnc2cc([C@H](C)Nc3ncnc(N)c3C#N)c(-c3ccccc3)nn12 [Compound 22],19,,76.7,2,2,4,322,inhibition at 1 µM (PI3K-α (p110α/p85α)): 13.6%

SMILES,inhibition at 1 µM (PI3K-γ (p110γ); at 1 μM) [%],IC50 (SU-DHL-6 cells) [nM],IC50 (PI3K-α (p110α/p85α)) [nM],inhibition at 1 µM (PI3K-β) [%],IC50 [1] [nM],IC50 (PI3K-δ (p110δ/p85α)) [nM],IC50 [2] [nM],IC50 (PI3K-γ (p110γ)) [nM],further results
CCC(Nc1ncnc(N)c1C#N)c1cc2ncc(Cl)n2nc1-c1cccc(F)c1 (stereo not drawn) [Compound 24],44.5,11,,46.6,11,2,7,,
